{
  "source": "paper PMC7759686",
  "about": "“Pharmacokinetics and Immunological Effects of Romidepsin in Rhesus Macaques” (Frontiers in Immunology, 2020)",
  "key": {"[1]": {"test": "Serum chemistries (hepato-, nephro- and general toxicity markers)", "format": "in vivo, rhesus macaques (Macaca mulatta)", "conditions": "3 RMs, 7 mg/m^2", "description": "Complete blood counts (CBCs) and serum chemistries were monitored in the collected samples from both the RMD-treated RMs and control RMs by either the Marshfield Laboratories (Cleveland, OH), IDEXX Reference Laboratories (IDEXX Laboratories, Inc, Westbrook, ME) or in house, using a ProCyte Hematology Analyzer (IDEXX Laboratories, Inc)."}, "[2]": {"test": "RMD pharmacokinetics in plasma and tissues (LC-MS/MS)", "conditions": "7 mg/m^2 4-h IV infusion; for RMD plasma concentration at 2 h postinfusion: second round"}, "[3]": {"system": "CD4+ and CD8+ T cells of PBMCs", "test": "In vitro RMD impact on homing markers of PBMCs", "format": "cell-based, rhesus macaques", "conditions": "for CCR5 expression on CD8+ T cells: untreated 7%; for CCR4 expression on CD8+ T cells: baseline 6%, untreated 29%; for α4β7 expression on CD8+ T cells: baseline 7%; for CCR9 expression on CD4+ T cells: baseline 2%; for CCR9 expression on CD4+ T cells / CCR9 expression on CD8+ T cells: untreated 3%", "experimental": "To assess the RMD impact on the expression of cellular and homing markers, fresh PBMCs collected from 3 SIV-naïve RMs were subjected to either no RMD treatment or escalating doses of RMD (2, 10, and 20 ng/ml). The PBMCs were incubated with RMD in RPMI1640 supplemented with 1% Penicillin/Streptomycin, 1% HEPES buffer, 1% L-glutamine, and 5% heat-inactivated bovine calf serum for 0, 1, 2, or 5 days. PBMCs were then stained with CD3-V500, CD4-Alexa Flour 700 (L200), CD8-PE-CF594, CCR4-PE-Cy7 (1G1), CCR5-APC (3AP), CCR7-PE (3D12), CCR9-FITC (112509) (R&D Systems, Minneapolis, MN, USA), β7-PE-Cy5 (FIB504), and LIVE/DEAD Fixable Blue Dead Cell Stain Kit (Thermo Fisher Scientific); all antibodies were from BD Biosciences unless otherwise noted. Stained PBMCs were acquired on a LSR-II and data were analyzed with FlowJo software (TreeStar)."}, "[4]": {"conditions": "3 days postinfusion, baseline 22"}, "[5]": {"conditions": "4 days postinfusion, baseline 22"}, "[6]": {"conditions": "kel from mean concentration-time profile of 3 RMs"}},
  "note": "“And” between values parts separate entries of the source, which are not always exact repeats. Equal values may be shown once.",
  "data": [
    {"smiles": "C/C=C1\\NC(=O)[C@H]2CSSCC/C=C/[C@H](CC(=O)N[C@H](C(C)C)C(=O)N2)OC(=O)[C@H](C(C)C)NC1=O", "note": "[RMD, romidepsin]", "values": [
      {"measurement": "alanine aminotransferase (ALT)", "setting": "[1]; 18 h postinfusion, baseline 22, normal range 14-94, not significant", "result": 98, "unit": "U/L"},
      {"measurement": "aspartate aminotransferase (AST)", "setting": "[1]; 18 h postinfusion, baseline 39, normal range 31-108, p < 0.05", "result": 186, "unit": "U/L"},
      {"measurement": "creatinine", "setting": "[1]; 3 days postinfusion, baseline 0.60", "result": 0.63, "unit": "mg/dL"},
      {"measurement": "alanine aminotransferase (ALT)", "setting": "[1]; [4]", "result": 89, "unit": "U/L"},
      {"measurement": "urea nitrogen", "setting": "[1]; [4]", "result": 29, "unit": "mg/dL"},
      {"measurement": "aspartate aminotransferase (AST)", "setting": "[1]; 3 days postinfusion, baseline 39", "result": 101, "unit": "U/L"},
      {"measurement": "lactate dehydrogenase (LDH)", "setting": "[1]; 3 days postinfusion, baseline 702, normal 514 ± 187", "result": "1,562 U/L"},
      {"measurement": "alanine aminotransferase (ALT)", "setting": "[1]; [5]", "result": 80, "unit": "U/L"},
      {"measurement": "urea nitrogen", "setting": "[1]; [5]", "result": 25, "unit": "mg/dL"},
      {"measurement": "aspartate aminotransferase (AST)", "setting": "[1]; 4 days postinfusion, baseline 39", "result": 91, "unit": "U/L"},
      {"measurement": "creatinine kinase (CK)", "setting": "[1]; 4 days postinfusion, baseline 367", "result": "1,740 U/L"},
      {"measurement": "lactate dehydrogenase (LDH)", "setting": "[1]; 4 days postinfusion, baseline 702", "result": "1,323 U/L"},
      {"measurement": "creatinine", "setting": "[1]; peak, 18 h postinfusion, baseline 0.60, normal range 0.5-1.2", "result": 0.77, "unit": "mg/dL"},
      {"measurement": "urea nitrogen", "setting": "[1]; peak, 18 h postinfusion, baseline 22, normal range 8-25", "result": 35, "unit": "mg/dL"},
      {"measurement": "creatinine kinase (CK)", "setting": "[1]; peak, 18 h postinfusion, baseline 367, normal range 132-505, p < 0.05", "result": "7,445 U/L"},
      {"measurement": "GI tract terminal half-life relative to plasma", "setting": "[2]", "result": 1.8, "unit": "fold"},
      {"measurement": "LN terminal half-life relative to plasma", "setting": "[2]", "result": "seven-fold longer"},
      {"measurement": "plasma concentration at 8 h postinfusion", "setting": "[2]", "result": 5.16, "unit": "nM"},
      {"measurement": "time with quantifiable concentrations in GI tract", "setting": "[2]; last sampling 10 days", "result": 10, "unit": "days postinfusion"},
      {"measurement": "time with quantifiable concentrations in LNs", "setting": "[2]; last sampling 10 days", "result": 10, "unit": "days postinfusion"},
      {"measurement": "mean terminal half-life in plasma", "setting": "[2]; 3 SIV-naïve RMs, kel from semi-log regression of individual plasma data, observations after 96 h omitted", "result": 15.3, "unit": "h"},
      {"measurement": "RMD concentration in intestine at 4 h postinfusion", "setting": "[2]; animal RM32", "result": 354, "unit": "ng/g"},
      {"measurement": "RMD plasma concentration at 2 h postinfusion", "setting": "[2]; animal RM32, LC-MS/MS", "result": 47, "unit": "ng/mL"},
      {"measurement": "RMD concentration in intestine at 4 h postinfusion", "setting": "[2]; animal RM33", "result": "3,932 ng/g"},
      {"measurement": "RMD plasma concentration at 2 h postinfusion", "setting": "[2]; animal RM33, LC-MS/MS", "result": "7.7 ng/mL and 8 ng/mL"},
      {"measurement": "RMD plasma concentration at 2 h postinfusion", "setting": "[2]; animal RM71, LC-MS/MS", "result": "4.7 ng/mL and 5 ng/mL"},
      {"measurement": "plasma concentration at 2 h postinfusion", "setting": "[2]; group value of 3 RMs", "result": 19.9, "unit": "ng/mL"},
      {"measurement": "RMD concentration in LNs at 4 h postinfusion", "setting": "[2]; individual values of 3 RMs, superficial LNs, tissue density 1.0 g/ml assumed, LC-MS/MS", "result": "70 ng/mL and 75 ng/mL and 101 ng/mL"},
      {"measurement": "mean terminal half-life in gastrointestinal tract", "setting": "[2]; [6]", "result": 28, "unit": "h"},
      {"measurement": "mean terminal half-life in lymph nodes", "setting": "[2]; [6]", "result": 110, "unit": "h"},
      {"measurement": "RMD concentration in GI tract at 4 h postinfusion, median", "setting": "[2]; median of 3 RMs, intestinal biopsies, LC-MS/MS", "result": "3,665 ng/g"},
      {"measurement": "CCR5 expression on CD4+ T cells", "setting": "[3]; 2 ng/ml RMD, day 5, baseline 3%, untreated 2%, p > 0.05", "result": 1, "unit": "%"},
      {"measurement": "CCR5 expression on CD8+ T cells", "setting": "[3]; 2 ng/ml RMD, day 5, baseline 4%, p > 0.05", "result": 59, "unit": "%"},
      {"measurement": "CCR4 expression on CD8+ T cells", "setting": "[3]; 2 ng/ml RMD, day 5, p > 0.05", "result": 73, "unit": "%"},
      {"measurement": "α4β7 expression on CD8+ T cells", "setting": "[3]; 2 ng/ml RMD, day 5, p > 0.05", "result": 59, "unit": "%"},
      {"measurement": "CCR7 expression on CD8+ T cells", "setting": "[3]; 10 ng/ml RMD, day 1 (peak), baseline 3%", "result": 6, "unit": "%"},
      {"measurement": "α4β7 expression on CD4+ T cells", "setting": "[3]; 10 ng/ml RMD, day 1, baseline 8%", "result": 9, "unit": "%"},
      {"measurement": "α4β7 expression on CD4+ T cells", "setting": "[3]; 10 ng/ml RMD, day 2, baseline 8%", "result": 16, "unit": "%"},
      {"measurement": "CCR9 expression on CD4+ T cells", "setting": "[3]; 10 ng/ml RMD, day 5 (peak), p > 0.05", "result": 14, "unit": "%"},
      {"measurement": "CCR5 expression on CD4+ T cells", "setting": "[3]; 10 ng/ml RMD, day 5, baseline 3%, untreated 2%, p > 0.05", "result": "< 1", "unit": "%"},
      {"measurement": "CCR9 expression on CD8+ T cells", "setting": "[3]; 10 ng/ml RMD, day 5, baseline 4%, p > 0.05", "result": 8, "unit": "%"},
      {"measurement": "CCR5 expression on CD8+ T cells", "setting": "[3]; 10 ng/ml RMD, day 5, baseline 4%, p < 0.05", "result": 93, "unit": "%"},
      {"measurement": "CCR4 expression on CD8+ T cells", "setting": "[3]; 10 ng/ml RMD, day 5, p < 0.05", "result": 93, "unit": "%"},
      {"measurement": "α4β7 expression on CD8+ T cells", "setting": "[3]; 10 ng/ml RMD, day 5, p < 0.05", "result": 95, "unit": "%"},
      {"measurement": "α4β7 expression on CD4+ T cells", "setting": "[3]; 10 ng/ml RMD, day 5, untreated 7.5%", "result": 2, "unit": "%"},
      {"measurement": "CCR7 expression on CD8+ T cells", "setting": "[3]; 20 ng/ml RMD, day 1 (peak), baseline 3%", "result": 6.2, "unit": "%"},
      {"measurement": "α4β7 expression on CD4+ T cells", "setting": "[3]; 20 ng/ml RMD, day 1, baseline 8%", "result": 10, "unit": "%"},
      {"measurement": "α4β7 expression on CD4+ T cells", "setting": "[3]; 20 ng/ml RMD, day 2, baseline 8%", "result": 15, "unit": "%"},
      {"measurement": "CCR9 expression on CD4+ T cells", "setting": "[3]; 20 ng/ml RMD, day 5 (peak), p > 0.05", "result": 13, "unit": "%"},
      {"measurement": "CCR7 expression on CD4+ T cells", "setting": "[3]; 20 ng/ml RMD, day 5 (peak), baseline 4%, untreated 2%, p > 0.05", "result": 9, "unit": "%"},
      {"measurement": "CCR5 expression on CD4+ T cells", "setting": "[3]; 20 ng/ml RMD, day 5, baseline 3%, untreated 2%, p > 0.05", "result": "< 1", "unit": "%"},
      {"measurement": "CCR9 expression on CD8+ T cells", "setting": "[3]; 20 ng/ml RMD, day 5, baseline 4%, p > 0.05", "result": 10, "unit": "%"},
      {"measurement": "CCR5 expression on CD8+ T cells", "setting": "[3]; 20 ng/ml RMD, day 5, baseline 4%, p < 0.05", "result": 90, "unit": "%"},
      {"measurement": "CCR4 expression on CD8+ T cells", "setting": "[3]; 20 ng/ml RMD, day 5, p < 0.05", "result": 90, "unit": "%"},
      {"measurement": "α4β7 expression on CD8+ T cells", "setting": "[3]; 20 ng/ml RMD, day 5, p < 0.05", "result": 91, "unit": "%"},
      {"measurement": "CCR7 expression on CD8+ T cells", "setting": "[3]; 20 ng/ml RMD, day 5, untreated 2%", "result": 5, "unit": "%"},
      {"measurement": "α4β7 expression on CD4+ T cells", "setting": "[3]; 20 ng/ml RMD, day 5, untreated 7.5%", "result": 3, "unit": "%"},
      {"measurement": "CCR4 expression on CD4+ T cells", "setting": "[3]; 2, 10, 20 ng/ml RMD, up to day 5", "result": "mostly unchanged"}
    ]}
  ]
}
